Data taken from US4594238A (Regents of University of Minnesota, priority 1984, dated 1986).
“Also recorded” adds a separate entry of the source.

Legend:
[1] = thiourea administered prior to the platinum (II); cited from earlier work
[2] = test system: thyroid hormone production; settings: cited from earlier work
[3] = test system: Pt/DNA complexes; settings: cited from earlier work
[4] = Comparative nephrotoxicity: low-dose i.v. vs high-dose i.p. NaDDTC rescue after DDP, Example 2; assay type: in vivo, Female F344 (Fischer) rats; settings: for Kidney sections / Day 5 BUN (mean ±SEM) / Diarrhea / Weight loss on day 5: DDP 6 mg/kg i.v.
Procedure: (§1) Female F344 (Fischer) rates, initial weight 100-150 g, were obtained from the Charles River Breeding Laboratory, Wilmington, MA. They were housed in methacrylate cages and given Purina rat chow and water ad libitum for at least one week. Lean weight of the rats were 150 g at the onset of experiments unless otherwise noted.
(§2) Mammary Tumor 13762 was obtained in the form of an implanted tumor in a female F344 rat. All intravenous injections were carried out under brief ether anesthesia.

[5] = Protection of rats against DDP toxicity by i.p. NaDDTC (BUN, weight loss, diarrhea, histopathology), Example 1 / Table 1; assay type: in vivo, Male F344 (Fischer) rats; settings: for Incidence of Diarrhea: DDP […] i.v.; for BUN / Weight Loss: Day 5, DDP […] i.v.
Text: Male F344 (Fischer) rats (average weight, 150 g) were obtained from the Charles River Breeding Laboratory. They were divided into groups of four rats, placed in methacrylate cages, and given National Institute of Health chow for rodents and water ad lib, for 7 days. Average weight of the rats was 180 g (range, 160-200 g) when injected.
Tetraethylthiuram disulfide (disulfiram) was obtained from Sigma Chemical Co., St. Louis MO. […] Trav. Chim. 70:917 (1951); immediately prior to injection, it was dissolved in sterile water at a concentration of 100 mg/ml. Sodium bicarbonate was prepared in sterile water at a concentration of 50 mg/ml. All injections were carried out under brief ether anesthesia.
Otherwise, weight and BUN were determined at 5 days after injection, reportedly the time of maximal observed toxicity. Evidence of gastrointestinal toxicity was obtained qualitatively by noting the presence or absence of diarrhea 3-5 days after injection.
Randomly selected animals were sacrificed at 5 days after injection for study of histopathologic changes in the kidney and to note the presence or absence of hemorrhagic enteritis. Kidneys were removed, placed in Zenker's fixative, embedded in paraffin, sectioned at 6 μm, and stained with hematoxylin and eosin.

[6] = test system: Rat mammary tumor 13762; test: Comparative tumor response to DDP with and without NaDDTC rescue, Example 2; assay type: in vivo, Female F344 (Fischer) rats
Procedure: as §1, §2
Tumor inoculation was carried out as follows: two rats bearing tumors having a mean diameter of 2.5-3.5 cm were sacrificed using ether anesthesia. The tumors were excised immediately, finely minced, combined, and resuspended in 20-40 ml of normal saline. This suspension was filtered through a gauze pad to remove coarse pieces of tissue and the resulting suspension inoculated subcutaneously (0.2-0.5 ml/injection) into the left flank of each rat.

[7] = Reduction of toxicity (including bone marrow toxicity) of platinum compounds, Example 4; assay type: in vivo; settings: platinum compounds of drawing 16, X=OH or H2O
[8] = NaDDTC 100 mg/kg i.v. 2 hours after DDP
[9] = NaDDTC 750 mg/kg i.p. 2 hours after DDP
[10] = DDTC 500 mg/kg ip 1/2 hour after DDP, n=4
[11] = DDTC 500 mg/kg ip 1 hour after DDP, n=4
[12] = DDTC 500 mg/kg ip 2 hours after DDP, n=4
[13] = DDTC 750 mg/kg ip 0 hours after DDP, n=12
[14] = DDTC 750 mg/kg ip 3/4 hour after DDP, n=5
[15] = DDTC 750 mg/kg ip 1 hour after DDP, n=16
[16] = DDTC 750 mg/kg ip 2 hours after DDP, n=14
[17] = DDTC 750 mg/kg ip 3 hours after DDP, n=10
[18] = DDTC 750 mg/kg ip 4 hours after DDP, n=7
[19] = DDTC 750 mg/kg ip 6 hours after DDP, n=5
[20] = DDTC 750 mg/kg ip at -1/2 hour (30 minutes before DDP), n=4
[21] = DDTC 750 mg/kg ip, rescue time printed 11/2 hours after DDP, n=15
[22] = NaDDTC administered between 1 and 4 hours after DDP
[23] = NaDDTC immediately after DDP (time=0 hour)
[24] = DDP 2 mg/kg i.v., NaDDTC 100 mg/kg i.v.
[25] = DDP 2 mg/kg, DDTC 750 mg/kg ip 2 hours later
[26] = DDP 8 mg/kg with DDTC rescue 750 mg/kg ip

Question: Which “Efficacy of platinum (II)” value [1] does the source give for `NC(N)=S` [thiourea] here?
Answer: Its value is “Decreased efficacy of platinum (II)”.

Question: And the “Inhibition of thyroid hormone production” value [2]?
Answer: Its value is “reported to inhibit thyroid hormone production”.

Question: And the “Reversal of Pt/DNA complexing” value [3]?
Answer: Its value is “does reverse Pt/DNA complexing”.

Question: What does the source list for `CCN(CC)C(=S)[S-].[Na+]` [DDTC, sodium diethyldithiocarbamate]?
Answer: Kidney sections ([4]; NaDDTC 100 mg/kg i.v.): mild hydropic changes with occasional evidence of degeneration; Day 5 BUN (mean ±SEM) [4, 8]: 43±5 milligrams per deciliter; Diarrhea [4, 8]: not observed; Weight loss on day 5 [4, 8]: 14%; Kidney sections ([4]; NaDDTC 750 mg/kg i.p.): mild hydropic changes with occasional evidence of degeneration; Day 5 BUN (mean ±SEM) [4, 9]: 73±4 milligrams per deciliter; Diarrhea [4, 9]: not observed; Weight loss on day 5 [4, 9]: 9%; Inhibition of platinum-induced nephrotoxicity ([4]; administered intravenously): effectively inhibit platinum-induced nephrotoxicity without deleterious effects on tumor response; Protection against nephrotoxicity, intravenous vs intraperitoneal ([4]; low-dose i.v. vs. high-dose i.p. DDTC rescue): essentially equivalent for both routes; Incidence of Diarrhea ([5]; DDTC 750 mg/kg ip 0 hours after DDP): 0/6; Incidence of Diarrhea ([5]; DDTC 750 mg/kg ip 3/4 hour after DDP): 0/5; Incidence of Diarrhea ([5]; DDTC 750 mg/kg ip 1 hour after DDP): 0/8; Incidence of Diarrhea ([5]; DDTC 750 mg/kg ip 2 hours after DDP): 0/14; Incidence of Diarrhea ([5]; DDTC 750 mg/kg ip 6 hours after DDP): 2/5; Incidence of Diarrhea ([5]; DDTC 750 mg/kg ip 6 hours after DDP, listed as NaDDTC): two of the five; BUN [5, 10]: 152 ± 20 mg/dL; Weight Loss [5, 10]: 4 ± 2%; BUN [5, 11]: 90 ± 5 mg/dL; Weight Loss [5, 11]: 4 ± 1%; BUN [5, 12]: 72 ± 11 mg/dL; Weight Loss [5, 12]: 2 ± 2%; BUN [5, 13]: 214 ± 21 mg/dL; Weight Loss [5, 13]: 9 ± 1%; BUN [5, 14]: 56 ± 9 mg/dL; Weight Loss [5, 14]: 8 ± 2%; BUN [5, 15]: 63 ± 4 mg/dL; Weight Loss [5, 15]: 13 ± 1%; BUN [5, 16]: 95 ± 9 mg/dL; Weight Loss [5, 16]: 15 ± 1%; BUN [5, 17]: 77 ± 8 mg/dL; Weight Loss [5, 17]: 10 ± 1%; BUN [5, 18]: 106 ± 8 mg/dL; Weight Loss [5, 18]: 14 ± 1%; BUN [5, 19]: 209 ± 44 mg/dL; Weight Loss [5, 19]: 18 ± 2%; BUN [5, 20]: 418 ± 43 mg/dL; Weight Loss [5, 20]: 18 ± 1%; BUN [5, 21]: 62 ± 3 mg/dL; Weight Loss [5, 21]: 5 ± 1%; Reduction in BUN or weight loss ([5]; NaDDTC 6 hours after DDP): failed to demonstrate significant reduction either in BUN or weight loss; Rescue efficacy ([5]; NaDDTC 6 hours after DDP): only minimal rescue efficacy (if any); Diarrhea [5, 22]: Diarrhea was not observed; Kidney sections, histopathology [5, 22]: barely discernible pale band of mild tubule degeneration in the outer zone of the outer medullary stripe; Necropsy, small intestine [5, 22]: grossly normal small intestine; Reduction in BUN and weight loss [5, 22]: Marked reduction; Decrease in weight loss [5, 23]: significant decrease in weight loss; Reduction of BUN levels [5, 23]: without reduction of BUN levels; Protection from nephrotoxic effects of DDP ([5]; NaDDTC ip 500-750 mg/kg, DDP doses as high as 8 mg/kg): would afford protection from the nephrotoxic effects of DDP; Adverse effects on tumor response to DDP [6, 24]: no adverse effects; Initial response, control vs intravenous rescue group [6, 24]: Initial response was identical in both groups; Rats with relapse between days 25 and 30 ([6]; DDP 2 mg/kg i.v., NaDDTC 100 mg/kg i.v. 2 hours after DDP, n=8): 2/8; Other (non-relapsed) rats through day 50 ([6]; DDP 2 mg/kg i.v., NaDDTC 100 mg/kg i.v., n=8): essentially free of tumor through day 50; Minimum tumor diameter, day 23 ([6]; DDP 2 mg/kg i.v., NaDDTC 750 mg/kg i.p. 2 hours after DDP, n=11): 1.3 cm; Rats with relapse by day 30 ([6]; DDP 2 mg/kg i.v., NaDDTC 750 mg/kg i.p., n=11): 9/11; Mean tumor diameter by day 30 ([6]; DDP 2 mg/kg i.v., NaDDTC 750 mg/kg i.p., relapsed rats): 2.2 cm; Disappearance of tumor [6, 25]: disappearance of tumor was not observed; Initial response versus unrescued group [6, 25]: identical to that of the unrescued group; Mean minimum tumor diameter at day 21 [6, 25]: 1.2 cm; Mean tumor diameter at day 30 [6, 25]: 3.0 cm; Relapse and subsequent tumor growth versus no rescue [6, 25]: earlier onset of relapse and more rapid subsequent tumor growth; Deaths [6, 26]: no deaths; Tumor-free rats by day 28 [6, 26]: 1/8; Initial tumor response with or without NaDDTC rescue ([6]; DDP 2, 4, and 8 mg/kg, NaDDTC 750 mg/kg ip): identical with or without NaDDTC rescue; Tumor response at DDP 4 and 8 mg/kg versus 2 mg/kg ([6]; DDP 4 and 8 mg/kg, DDTC rescue 750 mg/kg ip): Qualitatively similar results; Local recurrence and tumor growth ([6]; NaDDTC 750 mg/kg ip): locally recurring tumors recur earlier and grow more rapidly; also recorded: local recurrence commenced earlier and tumors grew more rapidly; Effect of ip rescue on initial tumor response ([6]; ip route of rescue): does not seem to have any significant adverse effect upon initial tumor response; Reducing the toxicity (including bone marrow toxicity) of platinum compounds [7]: effective in reducing the toxicity (including bone marrow toxicity)
